Data published in US7198949B2, “Compositions and methods for altering the biodistribution of biological agents” (Board of Regents of the University of Nebraska, priority 1996, dated 2007).
Marks after values point to notes of the source that are not given here.

Key:
[1] = biological target: albumin (Homo sapiens, UniProt P02768); conditions: drugs which bind to albumin at site 1; cited from earlier work
[2] = biological target: human serum albumin (Homo sapiens, UniProt P02768); conditions: cited from earlier work
[3] = biological target: T1, albumin of PESDA microbubbles (Homo sapiens, UniProt P02768); test: Partitioning of 35S-labeled PS-ODN between PESDA microbubble top layer and lower layer, liquid scintillation counting; assay type: binding; conditions: for BOTTOM / TOP: N 6; for TOP: top layer containing microbubbles
T1 construct: commercially available albumin (human), U.S.P. solution (generally supplied as 5% or 25% by weight sterile aqueous solutions); purchased
Protocol: Radiolabeled oligonucleotides were synthesized as hydrogen phosphonate material by Glen Research (Bethesda, Md.) The uniformly ^35S-labeled PS-ODN with sequences 5′-TATGCTGTGCCGGGGTCTTCGGGC 3′ (24-mer complementary to c-myb) (SEQ ID NO:2) and 5′ TTAGGG 3′ (SEQ ID NO:3) were incubated in a final volume of 0.5 ml with the perfluorocarbon-exposed sonicated dextrose albumin microbubble solution for 30 minutes at 37° C. The solutions were allowed to stand so that the bubbles could rise to the top and 100 microliters were removed from the clear solution at the bottom and 100 microliters were removed from the top containing the microbubbles.
Five percent human serum albumin and five percent dextrose were obtained from a commercial source. Three parts of 5% dexticse and one part 5% human serum albumin (total 16 milliliters) were drawn into a 35-milliliter Monojet syringe. Each dextrose albumin sample was hand agitated with 8±2 milliliters of either a fluorocarbon gas (decafluorobutane; molecular weight 238 grams/mole) or 8±2 milliliters of room air, and the sample was then exposed to electromechanical sonication at 20 kilohertz for 80±5 seconds. The mean size of four consecutive samples of the perfluorocarbon-exposed sonicated dextrose albumin (PESDA) microbubbles produced in this manner, as measured with hemocytometry was 4.6±0.4 microns, and mean concentration, as measured by a Coulter counter was 1.4×10^9 bubbles/milliliter. The solution of microbubbles was then washed in a 1000 times volume excess of 5% dextrose to remove albumin which was not associated with the microbubbles. The microbubbles were allowed four hours to rise. The lower solution was then removed leaving the washed foam. The washed foam was then mixed with 0.9% sodium chloride.
Radioactivity in solutions were determined by liquid scintillation counting in a liquid scintillation counter (model LSC7500; Beckman Instruments GmbH, Munich, Germany). The sample volume was 100 μl to which 5 ml of Hydrocount biodegradable scintillation cocktail was added and mixed. Samples were counted immediately after each experiment and then again 24 hours later in order to reduce the influence of chemiluminescence and of quenching.

[4] = tested on: cytochrome P450 IIB1; test: Hexobarbital sleep time and biodistribution in rats given antisense oligos to cytochrome P450 IIB1 with or without PESDA microbubbles; assay type: in vivo, rat; conditions: PB alone × 2 days, 100 mg/kg HB i.p., control rats about 23 minutes
Protocol: The oligonucleotides were conjugated to perfluoropropane exposed sonicated dextrose albumin microbubbles (PESDA) as earlier described and delivered to rats intravenously.
Male Sprague-Dawley rats (Sasco, Omaha), were used and weighed between 210 to 290 grams for all studies. […] The animals were exposed to 12 hour light/dark cycle and allowed access to Purina rat chow and tap water ad libitum.
Rats in groups with PB were injected intraperitoneally with phenobarbital (Mallinckrodt, St. Louis) at 80 ml/kg/day×2 days. The PB injections were given simultaneously with the ODN-microbubble injections. Phosphorothioate ODN injections were 1 ml/kg/day×2 days. Sleep times were measured 48 hours after the first injection. The rats were injected intraperitoneally with 100 ml/kg hexobarbital (Sigma, St. Louis), paired fresh daily. The volume of this injection is 1 ml/kg body weight.
Each rat was injected with 100 mg/kg of hexobarbital intraperitoneally. The animals were placed on their backs to insure that they were still under sedation from the hexobarbital. Sleep time is defined as the time they are placed on their backs to the time when they roll over. The sleep times listed are the mean of each animal in the group±standard deviation.
As described earlier, 100 mg/kg HB was injected i.p. to each animal at the end of 2 days of treatment with PB and/or the ODNs.

[5] = bubbles in the presence of free albumin
[6] = bubbles in the presence of free albumin, lower clear layer
[7] = washed bubbles (no free albumin)
[8] = washed bubbles (no free albumin), lower layer

Chain of albumin (P02768 25-609): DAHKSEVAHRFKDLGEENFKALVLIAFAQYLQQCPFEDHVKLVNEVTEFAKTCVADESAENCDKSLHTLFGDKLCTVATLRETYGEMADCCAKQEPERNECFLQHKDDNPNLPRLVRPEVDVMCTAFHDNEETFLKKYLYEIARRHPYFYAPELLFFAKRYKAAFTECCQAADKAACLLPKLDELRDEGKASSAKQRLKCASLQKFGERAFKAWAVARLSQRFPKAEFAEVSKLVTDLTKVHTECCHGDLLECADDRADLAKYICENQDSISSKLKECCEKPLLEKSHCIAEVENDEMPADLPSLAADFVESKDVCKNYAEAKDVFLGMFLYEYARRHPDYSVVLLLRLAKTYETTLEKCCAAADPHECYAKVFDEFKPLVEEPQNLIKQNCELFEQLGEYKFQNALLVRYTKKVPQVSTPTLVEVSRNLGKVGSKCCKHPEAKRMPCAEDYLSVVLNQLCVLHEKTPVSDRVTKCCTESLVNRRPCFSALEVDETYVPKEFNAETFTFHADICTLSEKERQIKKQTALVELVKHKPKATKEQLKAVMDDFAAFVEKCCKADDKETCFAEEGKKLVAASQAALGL
T1 sequence (P02768 25-609): as above
Chain of human serum albumin (P02768 25-609): as above

For `O=C1NC(=O)C(c2ccccc2)(c2ccccc2)N1` [Phenytoin], the “% Albumin Binding” value [1] is listed as 89.0%.
For `Clc1ccc(COC(Cn2ccnc2)c2ccc(Cl)cc2Cl)c(Cl)c1` (stereo not drawn) [Miconazole], the “% Albumin Binding” value [1] is listed as 90.7–93.1* %.
In the case of `CN1C(C(=O)Nc2ccccn2)=C(O)c2ccccc2S1(=O)=O` [Piroxicam], the “% Albumin Binding” value [1] is given as 99.3%.
In the case of 5′d(AACGTTGAGGGGCAT)-3′ [15 mer PS-ODN], the “binding to human serum albumin in solution (dissociation constant range)” value [2] is listed as 3.7−4.8×10−5.
In the case of `NS(=O)(=O)c1cc(C(=O)O)c(NCc2ccco2)cc1Cl` [Furosemide], the “% Albumin Binding” value [1] is listed as 98.8%.
With “5′-TATGCTGTGCCGGGGTCTTCGGGC 3′ (antisense TATGCTGTGCCGGGGTCTTCGGGC; phosphorothioate backbone, 35S label, further chemistry not given here) [c-myb, uniformly 35S-labeled PS-ODN, 24-mer complementary to c-myb]” the “RATIO T/B” value [3, 5] was 1.35, the BOTTOM [3, 6] was 77.3 ± 1.2 cpm/μl and the TOP [3, 5] was 94.1 ± 17.6 cpm/μl. The “RATIO T/B” value [3, 7] was 2.16, the BOTTOM [3, 8] was 92.7 ± 15.7 cpm/μl and the TOP [3, 7] was 200.3 ± 37.4 cpm/μl.
With `CCC1(c2ccccc2)C(=O)NC(=O)NC1=O` [PB, phenobarbital] the sleep time [4] was “about 11.4±4.5 minutes”.
In the case of `CCCC(CCC)C(=O)O` [Valproic Acid], the “% Albumin Binding” value [1] is listed as 93.0%.
In the case of 5′ TTAGGG 3′, the “RATIO T/B” value [3, 5] is reported as 1.35, the BOTTOM [3, 6] is reported as 92.3 ± 6.4 cpm/μl and the TOP [3, 5] is reported as 125 ± 6.4 cpm/μl. The “RATIO T/B” value [3, 7] was 1.67, the BOTTOM [3, 8] was 126 ± 8.7 cpm/μl and the TOP [3, 7] was 210 ± 10.8 cpm/μl.
In the case of `Cc1noc(NS(=O)(=O)c2ccc(N)cc2)c1C` [Sulfisoxazole], the “% Albumin Binding” value [1] is given as 91.4%.
For `CO/N=C(\C(=O)N[C@@H]1C(=O)N2C(C(=O)O)=C(CSc3nc(=O)c(=O)[nH]n3C)CS[C@H]12)c1csc(N)n1` [Ceftriaxone], the “% Albumin Binding” value [1] is given as 90–95* %.
